Measured values from patent US8268961B2, “Antibacterial peptides and analogues thereof” (Universita Degli Studi di Siena, priority 2004, dated 2012).
Like-named read-outs stand apart in the source and are kept apart here. Positions of bridges follow the written chain, without caps; N, C: chain ends. Chains are numbered I, II in the order given. No end group written: not given here.

Assays:
Format in all cases: cell-based
E. coli strain TG1 = assay: Test of antibacterial activity (colony growth inhibition) on E. coli strain TG1; details: E. coli TG1, colony counting vs control without peptide
Outline: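 E. coli TG1 (OD600 0.2) was incubated 75 min at 37 °C with peptide in PBS at 0.12–2 mg/ml. Cells were then diluted 1:1000, plated on 2×TY agar and grown overnight at 30 °C, and colonies were counted against an untreated control.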

[1] = system: Pichia pastoris yeast strain X33; assay: Effect on Pichia pastoris yeast colonies
Experimental: To a volume of 50 μl of culture of Pichia pastoris grown 24 hour at 30° C. in YPD (Yeast Extract/Peptone/Dextrose) medium, 50 μl of MAP peptides (2 mg/ml) were added and left in incubation 150 min at 37° C. Subsequently, 50 μl of each incubation were plated on YPD solid medium and it was allowed to grow for 48 hours at 30° C. The number of colonies grown was compared with a control, where the yeast was not treated with the MAP.

[2] = system: Enterobacter aerogenes W03BG0067
Outline: (§1)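 MIC, given in molar units, was taken as the lowest concentration without visible growth after 24 h at 37° C. Testing followed the NCCLS microdilution method using cation-supplemented Mueller-Hinton broth and 5×10^4 CFU per well.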

[3] = system: Pseudomonas aeruginosa 885149; details: 885149
Outline: as §1

[4] = system: Pseudomonas aeruginosa 891; details: 891
Outline: as §1

[5] = system: Proteus mirabilis W03VA1144
Outline: as §1

[6] = system: Klebsiella pneumoniae W03BG0019
Outline: as §1

[7] = system: Klebsiella pneumoniae W03NO0078
Outline: as §1

[8] = system: Staphylococcus aureus ATCC 25923; details: Staphylococcus aureus ATCC 25923, reference strain
Outline: (§2)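 cation-suppl. MH broth, std microdilution (NCCLS); 5×10^4 CFU/well; 24 h, 37° C; visual read; MIC = lowest conc. with no visible growth, molar units.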

[9] = system: Acinetobacter baumannii AB1MG
Outline: as §1

[10] = system: Escherichia coli W99FI0077; details: W99FI0077
Outline: as §1

[11] = system: Klebsiella pneumoniae W99FI0057; details: W99FI0057
Outline: as §1

[12] = system: Escherichia coli W03NO0013
Outline: as §1

[13] = system: Citrobacter freundii W99FI00007
Outline: as §1

[14] = system: Pseudomonas aeruginosa ATCC27853; details: ATCC27853
Outline: as §2

[15] = system: Pseudomonas aeruginosa VA463/98
Outline: as §1

[16] = system: Enterobacter cloacae W03AN0041
Outline: as §1

[17] = system: Klebsiella oxytoca W99FI00049
Outline: as §1

[18] = system: Escherichia coli W03BG0025
Outline: as §1

[19] = system: Acinetobacter baumannii AB7MG
Outline: as §1

[20] = system: Burkholderia cepacia SMC71
Outline: as §1

[21] = system: Escherichia coli ATCC 25922; details: ATCC 25922
Outline: as §1

Substance: I: QKKIRVRLSAKKA-OH / II: QKKIRVRLSAK / III: QKKIRVRLSA / IV: QKKIRVRLSA (amide I:11-IV:C, I:12-II:C, II:11-III:C) [M6, QKKIRVRLSA]
- Antibacterial activity on E. coli TG1 colony growth (E. coli strain TG1): good antibacterial activity
- Number of yeast colonies vs negative control [1]: did not differ from the negative control
- MIC (Molarity) [2]: 1.5 µM
- MIC (Molarity) [3]: 1.5 µM
- MIC (Molarity) [4]: 1.5 µM
- MIC (Molarity) [5]: 12 µM
- MIC (Molarity) [6]: 1.5 µM
- MIC (Molarity) [7]: 3 µM
- MIC (Molarity) [8]: >4.9e-05 M
- MIC (Molarity) ([8]; listed as QKKIRVRLSA): ~10^−5 M
- MIC (Molarity) [9]: 3 µM
- MIC (Molarity) [10]: 1.5 µM
- MIC (Molarity) [11]: 0.76 µM
- MIC (Molarity) [12]: 1.5 µM
- MIC (Molarity) [13]: 3 µM
- MIC (Molarity) [14]: 0.76 µM
- MIC (Molarity) [15]: 0.76 µM
- MIC (Molarity) [16]: 0.76 µM
- MIC (Molarity) [17]: 12 µM
- MIC (Molarity) [18]: 1.5 µM
- MIC (Molarity) [19]: 6 µM
- MIC (Molarity) [20]: 12 µM
- MIC (Molarity) [21]: 1.5 µM
